Earlier results as cited in patent US11439578B2, “Agent for dyeing hair, containing at least one organic silicon compound, a coloring compound and a film-forming, hydrophilic polymer” (Henkel AG & Co. KGaA, priority 2018, dated 2022).

Conditions: about 25° C.

Compound | solubility in water | solubility in water (in words)
CCN(Cc1cccc(S(=O)(=O)[O-])c1)c1ccc(C(=C2C=CC(=[N+](CC)Cc3cccc(S(=O)(=O)[O-])c3)C=C2)c2ccccc2S(=O)(=O)[O-])cc1.[Na+].[Na+] [Acid Blue 9] | more than 20 % by weight | –
O=S(=O)([O-])c1ccc(N=Nc2c(O)ccc3ccccc23)cc1.[Na+] [Acid Orange 7, sodium salt of 4-[(2-hydroxy-1-naphthyl)azo]benzene sulphonate] | more than 7 g/L | –
Nc1cc(S(=O)(=O)[O-])cc2cc(S(=O)(=O)[O-])c(N=Nc3ccccc3)c(O)c12.[Na+].[Na+] [Acid Red 33, disodium salt of 5-amino-4-hydroxy-3-(phenylazo)-naphthalene-2,7-disulphonate] | about 2.5 g/L | –
O=C([O-])c1c(Cl)c(Cl)c(Cl)c(Cl)c1-c1c2c(Br)cc(=O)c(Br)c-2oc2c(Br)c(O)cc(Br)c12.O=C([O-])c1c(Cl)c(Cl)c(Cl)c(Cl)c1-c1c2c(Br)cc(=O)c(Br)c-2oc2c(Br)c(O)cc(Br)c12.[Na+].[Na+] [Acid Red 92, disodium salt of 3,4,5,6-tetrachloro-2-(1,4,5,8-tetrabromo-6-hydroxy-3-oxoxanthen-9-yl)benzoic acid] | greater than 10 g/L | –
O=C([O-])C1=NN(c2ccc(S(=O)(=O)[O-])cc2)C(=O)C1N=Nc1ccc(S(=O)(=O)[O-])cc1.[Na+].[Na+].[Na+] (centres unmarked) [Acid Yellow 23, trisodium salt of 4,5-dihydro-5-oxo-1-(4-sulfophenyl)-4-((4-sulfophenyl)azo)-1H-pyrazole-3-carboxylic acid] | – | highly soluble in water
